# pIC50: −log10 of the molar value.
# Target: GluA1o-γ8 (GRIA1o-CACNG8 fusion construct) (Homo sapiens (Human), UniProt P42261+Q8WXS5)
# Experiment: Calcium flux assay (FLIPR), inhibition of TARP γ8 dependent AMPA receptor activity
# Format: cell-based
# Details: GluA1o-γ8 (GRIA1o-CACNG8 fusion) in HEK293 cells, calcium flux after 15 μM glutamate
# Excerpt: This assay was used to test compounds for their ability to inhibit TARP γ8 dependent AMPA receptor activity. The AMPA receptor is a non-selective cation channel activated by glutamate. Ionotropic glutamate receptors normally desensitize too rapidly to allow detectable calcium influx in a FLIPR assay (Strange et al. (2006). “Functional characterisation of homomeric ionotropic glutamate receptors GluR1-GluR6 in a fluorescence-based high throughput screening assay.” Comb Chem High Throughput Screen 9(2): 147-158). But, this desensitization is incomplete, and a substantial steady-state current remains in the sustained presence of glutamate (Cho et al. (2007). “Two families of TARP isoforms that have distinct effects on the kinetic properties of AMPA receptors and synaptic currents.” Neuron 55(6): 890-904).
# An in vitro assay was used to determine the potency of test compounds as inhibitors of the glutamate response of the channel formed by GluA1o-γ8. To ensure a 1:1 stoichiometry of GluA1o and γ8 subunits in the expressed channel, a fusion of the cDNAs for GRIA1o and CACNG8 was used. Following Shi et al (2009) “The stoichiometry of AMPA receptors and TARPs varies by neuronal cell type.” Neuron 62(5): 633-640), the C-terminus of the cDNA for GRIA1o was fused to the N-terminus of the cDNA for γ8. The linker sequence was QQQQQQQQQQEFAT. Channels expressed with this construct appear to have similar properties to channels formed by co-expression of GRIA1o with an excess of CACNG8 (Shi et al. 2009). A clonal cell line in HEK293 cells stably expressing this construct, with a geneticin selection marker, was generated for use in this assay.
# Cell expressing the GRIA1o-CACNG8 fusion construct were grown in a monolayer in 96- or 384-well microtiter plates. They were washed with assay buffer (135 mM NaCl, 4 mM KCl, 3 mM CaCl2, 1 mM MgCl2, 5 mM glucose, 10 mM HEPES, pH 7.4, 300 mOs) using a Biotek EL405 plate washer. The cells were then loaded with a calcium-sensitive dye (Calcium-5 or Calcium-6, Molecular Devices) and the test compounds at a range of concentrations. Calcium flux following the addition of 15 μM glutamate was monitored using a Molecular Devices FLIPR Tetra. The fluorescence in each well was normalized to the fluorescence of negative and positive control wells. The negative control wells had no added compounds, and the positive control wells had been incubated with 10 μM CP465022 (a non-subtype-selective AMPA receptor antagonist) (Lazzaro et al. (2002). “Functional characterization of CP-465,022, a selective, noncompetitive AMPA receptor antagonist.” Neuropharmacology 42(2): 143-153). The responses to glutamate as functions of the test compound concentrations were fitted to a four-parameter logistic function. The fitted parameter corresponding to the midpoint was taken to be the potency of inhibition of the compound. The data in Table 4 below illustrates the observed potentcy for the compounds described herein. pIC50 refers to the negative log of the IC50 in molar.
# GluA1o-γ8 (GRIA1o-CACNG8 fusion construct), sequence (P42261 other isoform, or with tags, fused parts or gaps): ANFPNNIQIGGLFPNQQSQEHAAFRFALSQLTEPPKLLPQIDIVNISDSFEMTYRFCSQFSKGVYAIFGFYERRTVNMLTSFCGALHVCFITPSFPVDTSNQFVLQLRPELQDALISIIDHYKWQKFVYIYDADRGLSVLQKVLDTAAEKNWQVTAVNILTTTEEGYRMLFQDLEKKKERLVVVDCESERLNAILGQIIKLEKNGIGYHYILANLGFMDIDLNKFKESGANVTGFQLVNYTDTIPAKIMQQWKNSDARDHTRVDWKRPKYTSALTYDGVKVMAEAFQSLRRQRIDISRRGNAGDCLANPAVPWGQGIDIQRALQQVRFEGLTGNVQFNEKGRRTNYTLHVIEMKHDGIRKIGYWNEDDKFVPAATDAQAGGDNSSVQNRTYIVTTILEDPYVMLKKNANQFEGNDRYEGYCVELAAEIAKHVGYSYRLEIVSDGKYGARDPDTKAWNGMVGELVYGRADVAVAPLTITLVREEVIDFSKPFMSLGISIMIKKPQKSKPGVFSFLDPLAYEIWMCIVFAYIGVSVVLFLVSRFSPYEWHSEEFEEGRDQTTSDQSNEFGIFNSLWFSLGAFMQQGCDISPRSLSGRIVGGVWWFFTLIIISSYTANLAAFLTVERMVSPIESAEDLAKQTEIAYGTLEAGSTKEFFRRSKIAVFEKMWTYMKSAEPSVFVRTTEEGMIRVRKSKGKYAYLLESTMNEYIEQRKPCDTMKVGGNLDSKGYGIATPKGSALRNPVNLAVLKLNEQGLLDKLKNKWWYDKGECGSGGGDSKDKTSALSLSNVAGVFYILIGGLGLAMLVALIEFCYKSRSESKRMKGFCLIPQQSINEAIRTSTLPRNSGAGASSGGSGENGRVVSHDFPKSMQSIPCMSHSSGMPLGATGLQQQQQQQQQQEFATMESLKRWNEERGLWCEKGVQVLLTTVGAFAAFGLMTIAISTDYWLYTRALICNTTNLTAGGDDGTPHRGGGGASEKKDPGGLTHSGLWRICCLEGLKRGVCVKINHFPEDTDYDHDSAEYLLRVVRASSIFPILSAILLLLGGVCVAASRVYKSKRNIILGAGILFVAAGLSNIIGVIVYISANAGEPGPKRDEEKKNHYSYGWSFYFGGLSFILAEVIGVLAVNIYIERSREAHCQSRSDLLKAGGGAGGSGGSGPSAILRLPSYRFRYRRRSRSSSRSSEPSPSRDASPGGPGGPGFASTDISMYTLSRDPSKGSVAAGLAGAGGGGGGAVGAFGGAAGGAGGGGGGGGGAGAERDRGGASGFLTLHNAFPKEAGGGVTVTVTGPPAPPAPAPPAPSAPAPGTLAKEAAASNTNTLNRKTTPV
row,Compound,pIC50
1,"Cc1ccc2nc(C(C)C)n(-c3ccc4[nH]ncc4c3)c2n1 [Example 148, 3-(1H-Indazol-5-yl)-2-isopropyl-5-methyl-imidazo[4,5-b]pyridine]",8.10
2,"CCc1nc2ccc(C)nc2n1-c1ccc2c(c1)CC(=O)N2 [Example 75, 5-(2-Ethyl-5-methyl-imidazo[4,5-b]pyridin-3-yl)indolin-2-one]",6.60
3,"Cc1cc2cccnc2n1-c1cc(F)c2c(c1)CC(=O)N2 [Example 363, 7-Fluoro-5-(2-methylpyrrolo[2,3-b]pyridin-1-yl)indolin-2-one]",6.70
4,"Cc1ccc2nc(-c3ccc(F)cc3)n(-c3ccc4c(c3)CC(=O)N4)c2n1 [Example 35, 5-[2-(4-Fluorophenyl)-5-methyl-imidazo[4,5-b]pyridin-3-yl]indolin-2-one]",8.50
5,"O=C1Cc2cc(-n3c(C4CC(F)C4)nc4ccc(C(F)(F)F)nc43)ccc2N1 (stereo not shown) [Example 166, 5-[2-(3-Fluorocyclobutyl)-5-(trifluoromethyl)imidazo[4,5-b]pyridin-3-yl]indolin-2-one]",8.00
6,"Cc1cc(-n2c(CCC(F)(F)F)nc3ccc(C(F)(F)F)nc32)cc2cn[nH]c12 [Example 418, 3-(7-Methyl-1H-indazol-5-yl)-5-(trifluoromethyl)-2-(3,3,3-trifluoropropyl)-3H-imidazo[4,5-b]pyridine]",8.40
7,"O=c1[nH]c2ccc(-n3cnc4ccc(C(F)(F)F)nc43)cc2s1 [Example 190, 6-(5-(Trifluoromethyl)-3H-imidazo[4,5-b]pyridin-3-yl)benzo[d]thiazol-2(3H)-one]",6.50
8,"Cc1ccc2nc(C(C)(F)F)n(-c3ccc4c(c3)CC(=O)N4)c2n1 [Example 146, 5-[2-(1,1-Difluoroethyl)-5-methyl-imidazo[4,5-b]pyridin-3-yl]indolin-2-one]",7.40
9,"CC(C)c1nc2cc(F)cnc2n1-c1cc(Cl)c2[nH]ncc2c1 [Example 300, 3-(7-Chloro-1H-indazol-5-yl)-6-fluoro-2-isopropyl-imidazo[4,5-b]pyridine]",8.60
10,"O=c1[nH]c2ccc(-n3c(-c4ccccc4)nc4ccc(O)nc43)cc2s1 [Example 111, 6-(5-Hydroxy-2-phenyl-imidazo[4,5-b]pyridin-3-yl)-3H-1,3-benzothiazol-2-one]",7.80
11,"CCC(CC)c1nc2ccc(C(F)(F)F)nc2n1-c1ccc2c(c1)CC(=O)N2 [Example 83, 5-[2-(1-Ethylpropyl)-5-(trifluoromethyl)imidazo[4,5-b]pyridin-3-yl]indolin-2-one]",7.20
12,"Cc1c(Br)c2ccc(C(F)(F)F)nc2n1-c1cnc2c(c1)CC(=O)N2 [Example 395, 5-[3-Bromo-2-methyl-6-(trifluoromethyl)pyrrolo[2,3-b]pyridin-1-yl]-1,3-dihydropyrrolo[2,3-b]pyridin-2-one]",7.60
13,"Cc1ccc2nc(C(F)(F)F)n(-c3ccc4[nH]ncc4c3)c2n1 [Example 151, 3-(1H-Indazol-5-yl)-5-methyl-2-(trifluoromethyl)imidazo[4,5-b]pyridine]",7.90
14,"FC(F)c1nc2ccc(C(F)(F)F)nc2n1-c1ccc2[nH]ncc2c1 [Example 90, 2-(Difluoromethyl)-3-(1H-indazol-5-yl)-5-(trifluoromethyl)imidazo[4,5-b]pyridine]",8.50
15,"O=C1Cc2cc(-n3c(-c4ccc(C(F)(F)F)cc4)nc4cccnc43)ccc2N1 [Example 178, 5-[2-[4-(Trifluoromethyl)phenyl]imidazo[4,5-b]pyridin-3-yl]indolin-2-one]",5.50
16,"CC[C@H](C)c1nc2ccc(C(F)(F)F)nc2n1-c1ccc2[nH]ncc2c1 [Example 168, (S)-3-(1H-Indazol-5-yl)-2-sec-butyl-5-(trifluoromethyl)imidazo[4,5-b]pyridine]",8.20
17,"c1ccc(-c2nc3cccnc3n2-c2ccc3[nH]ncc3c2)cc1 [Example 2, 3-(1H-Indazol-5-yl)-2-phenyl-imidazo[4,5-b]pyridine]",7.30
18,"Cc1cc2cccnc2n1-c1cc(Cl)c2[nH]ncc2c1 [Example 333, 1-(7-Chloro-1H-indazol-5-yl)-2-methyl-pyrrolo[2,3-b]pyridine]",8.20
19,"Cc1ccnc2c1nc(C1CC1)n2-c1ccc2[nH]c(=O)sc2c1 [Example 135, 6-(2-Cyclopropyl-7-methyl-imidazo[4,5-b]pyridin-3-yl)-3H-1,3-benzothiazol-2-one]",7.10
20,"COc1nc2ccc(C(F)(F)F)nc2n1-c1ccc2[nH]ncc2c1 [Example 129, 3-(1H-Indazol-5-yl)-2-methoxy-5-(trifluoromethyl)imidazo[4,5-b]pyridine]",7.80
21,"Cc1cc(-n2c(C(F)(F)F)nc3cccnc32)cc2cn[nH]c12 [Example 317, 3-(7-Methyl-1H-indazol-5-yl)-2-(trifluoromethyl)imidazo[4,5-b]pyridine]",8.00
22,"O=c1[nH]c2ccc(-n3c(-c4ccccc4)nc4cccnc43)cc2s1 [Example 25, 6-(2-Phenylimidazo[4,5-b]pyridin-3-yl)-3H-1,3-benzothiazol-2-one]",8.00

# Other lines, results leading:
row,pIC50,Compound
1,9.80,"CC(C)(C)c1ccc2nc(-c3ccc(F)cc3)n(-c3ccc4[nH]ncc4c3)c2n1 [Example 118, 5-tert-Butyl-2-(4-fluorophenyl)-3-(1H-indazol-5-yl)imidazo[4,5-b]pyridine]"
2,8.90,"CCc1cc2cccnc2n1-c1cc(C)c2c(c1)CC(=O)N2 [Example 403, 5-(2-Ethylpyrrolo[2,3-b]pyridin-1-yl)-7-methyl-indolin-2-one]"
3,9.20,"CC(C)c1ccnc2c1nc(-c1ccccc1)n2-c1ccc2[nH]c(=O)sc2c1 [Example 70, 6-(7-Isopropyl-2-phenyl-imidazo[4,5-b]pyridin-3-yl)-3H-1,3-benzothiazol-2-one]"
4,9.50,"O=c1[nH]c2ccc(-n3c(C(F)(F)C(F)(F)F)nc4ccc(C(F)(F)F)nc43)cc2s1 [Example 233, 6-[2-(1,1,2,2,2-Pentafluoroethyl)-5-(trifluoromethyl)imidazo[4,5-b]pyridin-3-yl]-3H-1,3-benzothiazol-2-one]"
5,9.60,"Cc1ccc2nc(C3CCC3)n(-c3ccc4[nH]c(=O)sc4c3)c2n1 [Example 145, 6-(2-Cyclobutyl-5-methyl-imidazo[4,5-b]pyridin-3-yl)-3H-1,3-benzothiazol-2-one]"
6,9.80,"Cc1cc(-n2c(C(C)C)nc3ccc(C(F)(F)F)nc32)cc2c1NC(=O)C2 [Example 310, 5-[2-Isopropyl-5-(trifluoromethyl)imidazo[4,5-b]pyridin-3-yl]-7-methyl-indolin-2-one]"
7,8.60,"O=c1[nH]c2c(F)cc(-n3c(C(F)(F)F)nc4ccc(C(F)(F)F)nc43)cc2o1 [Example 283, 6-[2,5-Bis(trifluoromethyl)imidazo[4,5-b]pyridin-3-yl]-4-fluoro-3H-1,3-benzoxazol-2-one]"
8,10.10,"O=c1[nH]c2ccc(-n3c(C(F)F)nc4ccc(C(F)(F)F)nc43)cc2s1 [Example 234, 6-[2-(Difluoromethyl)-5-(trifluoromethyl)imidazo[4,5-b]pyridin-3-yl]-3H-1,3-benzothiazol-2-one]"
9,9.70,"O=C1Cc2cc(-n3c(C4CCOC4)cc4ccc(C(F)(F)F)nc43)cc(F)c2N1 (racemic) [Example 365, (RS)-7-Fluoro-5-[2-tetrahydrofuran-3-yl-6-(trifluoromethyl)pyrrolo[2,3-b]pyridin-1-yl]indolin-2-one]"
10,9.70,"CC(C)c1nc2ccc(C(F)(F)F)nc2n1-c1cc(Cl)c2c(c1)CC(=O)N2 [Example 299, 7-Chloro-5-[2-isopropyl-5-(trifluoromethyl)imidazo[4,5-b]pyridin-3-yl]indolin-2-one]"
11,9.40,"COCc1nc2ccc(C(F)(F)F)nc2n1-c1cc(Cl)c2[nH]ncc2c1 [Example 413, 3-(7-Chloro-1H-indazol-5-yl)-2-(methoxymethyl)-5-(trifluoromethyl)-3H-imidazo[4,5-b]pyridine]"
12,10.30,"Cc1cc(-n2c(C(F)F)nc3ccc(C(F)(F)F)nc32)cc2cn[nH]c12 [Example 286, 2-(Difluoromethyl)-3-(7-methyl-1H-indazol-5-yl)-5-(trifluoromethyl)imidazo[4,5-b]pyridine]"

# Source: patent publication US11312712B2, “Azabenzimidazoles and their use as AMPA receptor modulators” (Janssen Pharmaceutica NV, priority 2015, dated 2022)
